These results are taken from patent publication US11964954B1 (KING FAISAL UNIVERSITY, priority 2023, dated 2024).

Series [1] relates to human osteosarcoma cells (MG-63). Briefly: Cytotoxicity by SRB assay, MG-63 cells. It is filed as cell-based. The note with it: for IC50: mean±SD. The protocol: (§1) The human prostate cancer cells (PC3) and human osteosarcoma cells (MG-63) were obtained from Nawah Scientific Inc. (Mokatam, Cairo, Egypt) and cultured in DMEM (Dulbecco's modified eagle's medium), Gibco, USA, supplemented with fetal bovine serum (FBS) at a concentration of 10% and 100 U/mL of penicillin and streptomycin (PS). The cells were incubated at 37° C. in a humidified environment that contained 5% CO2.
(§2) Cells were seeded in 96-well plates as aliquots of 100 μL cell suspension and incubated in a complete media for 24 h. Afterward, cells were treated with N′-[(2-chlorobenzoyl)oxy]-1,3-benzothiazole-2-carboximidamide at diverse concentrations ranging from 0.01 μM to 100 μM for 72 h. Then, cells were fixed at 4° C. for one hour with 150 μL of 10% trichloroacetic acid (TCA). After washing the cells five times with distilled water, 70 μL of sulforhodamine (SRB) solution (0.4% w/v) was added and incubated for 10 min at room temperature in a dark place. Cells were washed with 1% acetic acid three times and allowed to air-dry. Then, 150 μL of Tris pH 10.5 (10 mM) was added, and the absorbance was measured at 540 nm using a BMG LABTECH®-FLUOstar Omega microplate reader (Ortenberg, Germany). Half maximal inhibitory concentrations (IC50) values were calculated for each experiment using GraphPad Prism 6 software. IC50 values were reported as mean±SD.
(§3) The inhibition was calculated using the following equation: Inhibition %=100-Average Viability
(In SRB staining, fixed cells bind dye roughly in proportion to their protein.)

Series [2] concerns human prostate cancer cells (PC3). The series is described as follows: Cytotoxicity by SRB assay, PC3 cells. It is filed as cell-based. Conditions: for IC50: mean±SD. Here is the method: as §1, §2, §3
Series [3] concerns Bacillus cereus, Staphylococcus aureus, Pseudomonas aeruginosa, Escherichia coli, Aspergillus flavus, Chrysosporium keratinophilum. Briefly: Agar plate disc-diffusion antimicrobial screening. Type of series: cell-based. Conditions: 10 μL of 10 mg/mL in DMSO per disc, result in words only. Here is the method: The agar plate disc-diffusion method was applied. Sterilized filter papers (6 mm in diameter) were wetted with 10 μL of a solution of each compound to be tested, containing 10 mg/mL in DMSO, and the discs were allowed to air dry. The discs were then placed onto the surface of agar plates (nutrient agar for bacteria and Sabouraud's dextrose agar for fungi) and seeded with the test organism. Each plate contained 15 mL of the agar medium, previously seeded with 0.2 mL of the broth culture of each organism pre-grown for 18 h. The plates were incubated at 37° C. for 48 h, and 72 h for fungi. The inhibition zones were measured in mm. Discs impregnated with DMSO were used as a control, and its inhibition zone was subtracted from the tested compound actual inhibition zone.
In particular, the present N′-[(2-chlorobenzoyl)oxy]-1,3-benzothiazole-2-carboximidamide was screened against gram positive bacteria, namely Bacillus cereus and Staphylococcus aureus, and gram-negative bacterial strains, namely Pseudomonas aeruginosa and Escherichia coli, while the antifungal activity was screened against Aspergillus flavus and Chrysosporium keratinophilum.

A word on the IC50: it is the midpoint of a concentration-inhibition curve. A higher IC50 goes with lower potency. As to `COc1cccc2c1C(=O)c1c(O)c3c(c(O)c1C2=O)C[C@@](O)(C(=O)CO)C[C@@H]3O[C@H]1C[C@H](N)[C@H](O)[C@H](C)O1` [DOX, Doxorubicin, reference compound], the IC50 was found to be 9.4 ± 1.1 µM in series [1] (Homo sapiens, MG-63, 72 h) and 7.6 ± 0.45 µM in series [2] (Homo sapiens, PC-3, 72 h).
The inhibition is the relative decrease from the control value, in per cent. The low end stands for a weak effect, the high end for a strong effect. As usually defined, the melting point is the temperature, or range, at which the solid turns liquid. `N/C(Cc1nc2ccccc2s1)=N\OC(=O)c1ccccc1Cl` had a melting point of 110 to 112 °C. For the same compound, in series [1] (Homo sapiens, MG-63, 72 h, Osteosarcoma (MG-63), 10 μg/ml, 72 h), testing at 10 µg/mL gave an inhibition of 95%. The compound further had an inhibition at 100 µg/mL in series [1] (Homo sapiens, MG-63, 72 h, Osteosarcoma (MG-63), 100 μg/ml, 72 h) of 91.3%. Further, in series [1] (Homo sapiens, MG-63, 72 h), the IC50 was under 4 µM. Further, the IC50 in series [1] (MG-63, 72 h) was determined as 3.45 µM. For the same compound, in series [1] (Osteosarcoma (MG-63), 10 μg/ml, 72 h, listed as N'-[(2-chlorobenzoyl)oxy]-1,3-benzothiazole-2-carboximidamide), the Inhibition % worked out at 90.17%. The antimicrobial activity result in series [3] was “excellent antimicrobial activities”. For the same compound, 10 µg/mL produced 95% inhibition in series [2] (Homo sapiens, PC-3, 72 h, Prostate cancer (PC-3), 10 μg/ml, 72 h). This compound also came in with an inhibition at 100 µg/mL in series [2] (Homo sapiens, PC-3, 72 h, Prostate cancer (PC-3), 100 μg/ml, 72 h) of 96%. Besides, the IC50 in series [2] (Homo sapiens, PC-3, 72 h) is under 4 µM. Further, the IC50 in series [2] (PC-3, 72 h) came out at 2.69 ± 0.03 µM. In series [2] (Prostate cancer (PC-3), 10 μg/ml, 72 h, listed as N'-[(2-chlorobenzoyl)oxy]-1,3-benzothiazole-2-carboximidamide), this compound returned an Inhibition % of 95.61%.
